Assay results taken from patent US20030108872A1, “Genomics-assisted rapid identification of targets” (priority 2000, published 2003).

What was measured:
Type in all cases: cell-based
[1] = tested on: cells in which folA is regulated by PBAD, PLtetO-1, or Plac/ara-1; assay: MIC by microbroth dilution in E. coli under-expressing folA; conditions: FIG. 5
Description: In another example, the wild-type native folA gene was knocked out, and a wild-type copy of the gene folA, which encodes the protein dihydrofolate reductase, was placed under ectopic expression in the yibD locus under regulation by PBAD with the regulator, L-arabinose. Dihydropteroate synthetase, the gene product of […], catalyzes the enzymatic reaction two steps before dihydrofolate reductase in the folate biosynthetic pathway.
(§1) Methods. […] IPTG was added to a final concentration of 0.1 mM and anhydrous-tetracycline was added to a final concentration of 100 ng/ml to the culture media for routine growth of GTC-EC#313 and GTC-EC#346, respectively.
(§2) The specificity and sensitivity of the resultant colonies to added drugs were followed by measuring the minimal inhibitory concentration (MIC) of trimethoprim, sulfamethozasone, phosphomycin and D-cycloserine at varying regulator levels. This was performed according to NCCLS (National Center for Clinical Laboratory Standards) recommendations(NCCLS, 1997, METHODS FOR DILUTION ANTIMICROBIAL SUSCEPTIBILITY TESTS FOR BACTERIA THAT GROW AEROBICALLY, 4th ed.; approved standard. NCCLS document M7-A4. NCCLS, Wayne, Pa.), in 100 μl volume in 96-well format, with serial two-fold dilutions of drug concentration.

[2] = tested on: B. subtilis NO-347 (BD170 thrC::Pspac-murA kanR ΔmurA::CmR); assay: MIC by microbroth dilution in B. subtilis under-expressing murA; conditions: IPTG 0-0.1 mM, compared to the control strain, FIG. 10
Description: Materials and Methods. The materials are the same as discussed above. Plasmids are listed in Table 4 B. subtilis strains were routinely grown in LB media or on LB agar plates containing 1.5% agar (Sambrook et al., MOLECULAR CLONING: A LABORATORY MANUAL, 2nd ed., Cold Spring Harbor Laboratory Press, 1989). MIC determination is performed using microbroth dilution-cultures grown in Mueller Hinton broth in 96-well microtiter plates purchased from Nunc (Plates—Cat. No. 262162; Lids—Cat. No. 264122). When required, media were supplemented with 5 μg/ml chloramphenicol or 10 μg/ml kanamycin. IPTG was added to culture media at a final concentration of 0.05 mM for routine culture growth of B. subtilis NO-347 (BDI70 thrC::Pspac-murA kan^R ΔmurA::Cm^R), which is dependent on IPTG for growth.
The endogenous murA gene in NO-360 was deleted by allelic replacement as follows (see FIG. 9). DNA fragments flanking the 5′ and 3′ ends of the murA gene were amplified from B. subtilis 168 genomic DNA using primer pairs KO mura F1+R2 and KO murA F2+R1, respectively. The 5′ and 3′ flanking fragments were linked to the Cm^R gene from pEVP3 using the cross-over PCR technique with the primer pair KO mura F1+R1. The resulting PCR product (shown in FIG. 9B) was used to transform naturally competent B. subtilis NO-360. Cm^R clones were selected in the presence of 0.01 mM and 0.05 mM IPTG. Allelic replacement of murA in Cm^R clones was verified by PCR. Strain NO-347 (BD170 thrC::Pspac-murA Kan^R ΔmurA::Cm^R) was chosen for MIC determinations for phosphomycin in presence of various concentrations of the regulator IPTG.
MIC determinations. Determination of minimum inhibitory concentration (MIC) for phosphomycin, novobiocin, erythromycin and trimethoprim lactate were performed in 96-well microliter plates using the microbroth dilution technique as described in NCCLS. 1997. Methods for dilution antimicrobial susceptibility tests for bacteria that grow aerobically-fourth edition; approved standard. NCCLS document M7-A4. NCCLS, Wayne, Pa. For MIC determinations using strain NO-347, various concentrations (0-0.1 mM) were added to the media. Growth was quantitated by OD600 measurements using a SpectroMax 250 plate reader (Molecular Devices).

[3] = tested on: E. coli strain WO-153; assay: Genome-wide E. coli ORFmer overexpression rescue (OER) assay
Description: Over expression Rescue Assays. Over expression assays were conducted with the E. coli strain WO-153 described in Table 7. Construction of WO-0153. […] The asmB1 mutation is a G to A transition at position 628 in the 1pxC gene. […] The tolC gene encodes an outer membrane protein that acts as a channel for the acrAB efflux pumps (See for example, Fralick, J. 1996. J. Bacteriol. 178:5801-5805). […] WO-0153 was constructed as follows. The asmB1 mutation was introduced into a DNA fragment containing the 1pxC gene and 1 kb of the 5′ end of the secA gene by site directed mutagenesis of the 1pxC gene using standard methods. A kan^R resistance cassette flanked by FRT sites was introduced 60 bp downstream of the 1pxC gene. The linear DNA construct was introduced into electrocompetent and recombinogenic E. coli KM354 (pTP223) as described by Murphy (See for example, Murphy, 1998, J. Bacteriol. 180: 2063-71). Transformants were selected on LB agar containing kanamycin (35 mcg/ml) and screened for sensitivity to novobiocin (20 mcg/ml). The presence of the asmB1 mutation in clones with the expected phenotype was verified by DNA sequence analysis. The kanR gene flanked by FRT sites was then excised from the 1pxC-secA intergenic region using a previously described method (See for example, Cherepanove, P. P, and Wackernagel, W. 1995. Gene 158: 9-14.). […] 178:5138-5143; Fralick, J. (1996). J. Bacteriol. 178:5801-5805; Fralick, J. A., et al. (1994) J. Bacteriol. 176:6404-6406; and Cherepanove, P. P, et al., (1995) Gene 158:9-14. […] Plasmid library DNA was transformed into WO-153 by electroporation as described above. Cells were collected from transformation plates by scraping and were equalized to an optical density of 1.53 on a Beckman DU650 spectrophotometer([…]). Groups of five libraries were mixed and frozen in LB media plus 10% (vol/vol) glycerol by immersion in a dry-ice/ethanol bath for 5 minutes.
Over-expression assays were performed in liquid media in a microtiter format, in a gradient plate format, or in a disk-diffusion format. The protocol used for the microtiter format was similar to the protocol described above for the MIC assay. Aliquots of 5 library pools spanning the genome were thawed at room temperature and 200 ul of each was inoculated into its own 20 ml of Mueller Hinton media containing ampicillin at 200 ug/ml and anhydrous tetracycline inducer as appropriate. Typically, replicates were performed using a number of final inducer concentrations, ranging from 0 to 100 ng/ml. Following an adequate mixing, 50 ul of inoculated media was mixed with 50 ul of the test antibiotic in Nunc brand 96-well microtiterplates. Typically, each group of five libraries was mixed with a range of concentrations of antibiotic spanning the minimum inhibitory concentration (MIC) of the antibiotic. […] Columns may contain 10 different groups of libraries as well as null vector and no innoculum controls. After mixing inoculum plus media with antibiotic, well contents were mixed by pipetting and incubated at 37° C. for 16 to 20 hours. Optical density at 600 nm was measured using a Molecular Devices SpectraMAX 250 spectrophotometer. […] Contents of wells showing rescue were transferred to LB agar plates containing ampicillin at 100 ug/ml, and were spread to obtain single colonies. Alternately, it is possible to maintain selection for the antibiotic being assayed by including it in the agar plates at this point.
OER Assay using Disk diffusion and Gradient Plate Assay formats. In the Disk diffusion plate format, the 3 inocula (see below) were plated on MHB plates containing ampicillin (100 mcg/ml) and anhydrous tetracycline (a-tet, 100 ng/ml). Two paper disks (6 mm diameter) containing 10×and 20×MIC of the test antiobiotic were placed on the surface of the plate.

[4] = tested on: cells in which murA is regulated by PBAD; assay: MIC by microbroth dilution in E. coli under-expressing murA; conditions: FIG. 6
Description: The wild-type gene murA, which encodes the enzyme UDP-N-acetylglucosamine enolpyruvate transferase, was knocked out in E. coli, and the gene was placed under ectopic expression in the yibD locus under regulation by PBAD with the regulator, L-arabinose.
as §1, §2

Cc1cc(NS(=O)(=O)c2ccc(N)cc2)no1 [sulfamethozasone]
MIC with decreasing regulator (L-arabinose) level [1]: decreases

CC[C@H]1OC(=O)[C@H](C)[C@@H](O[C@H]2C[C@@](C)(OC)[C@@H](O)[C@H](C)O2)[C@H](C)[C@@H](O[C@@H]2O[C@H](C)C[C@H](N(C)C)[C@H]2O)[C@](C)(O)C[C@@H](C)C(=O)[C@H](C)[C@@H](O)[C@]1(C)O [erythromycin]
sensitivity (MIC) on regulated under-expression of murA [2]: does not affect sensitivity

CO[C@@H]1[C@@H](OC(N)=O)[C@@H](O)[C@H](Oc2ccc3c(O)c(NC(=O)c4ccc(O)c(CC=C(C)C)c4)c(=O)oc3c2C)OC1(C)C [novobiocin]
sensitivity (MIC) on regulated under-expression of murA [2]: does not affect sensitivity

Oc1cc(Cl)ccc1Oc1ccc(Cl)cc1Cl [triclosan]
PCR verification of OER clones: expected target gene ([3]; liquid microtiter assay, expected targets folA, murA, fabI): expected target gene was identifed | PCR verification of OER clones: expected clone ([3]; two plate assay format (disk diffusion, gradient plate)): expected clone was isolated

N[C@@H]1CONC1=O [D-cycloserine]
sensitivity on under-expression of murA [4]: hypersensitivity | identity of OER clones that were not the expected gene, by sequence analyses [3]: closely related ddlB gene | OER clones that were not the expected ddlA gene ([3]; PCR verification of OER clones): 80%
